Experimental data: patent US20250228832A1, “METHODS FOR TREATING DISORDERS AMELIORATED BY MUSCARINIC RECEPTOR ACTIVATION” (KARUNA THERAPEUTICS, INC., priority 2022, published 2025)
Where two headings read alike, the source gives them in different places.

Molecular target: T1, human M4 receptor (Homo sapiens, UniProt P08173)
T1 construct: expressed in transfected cells
T1 sequence (P08173 1-479): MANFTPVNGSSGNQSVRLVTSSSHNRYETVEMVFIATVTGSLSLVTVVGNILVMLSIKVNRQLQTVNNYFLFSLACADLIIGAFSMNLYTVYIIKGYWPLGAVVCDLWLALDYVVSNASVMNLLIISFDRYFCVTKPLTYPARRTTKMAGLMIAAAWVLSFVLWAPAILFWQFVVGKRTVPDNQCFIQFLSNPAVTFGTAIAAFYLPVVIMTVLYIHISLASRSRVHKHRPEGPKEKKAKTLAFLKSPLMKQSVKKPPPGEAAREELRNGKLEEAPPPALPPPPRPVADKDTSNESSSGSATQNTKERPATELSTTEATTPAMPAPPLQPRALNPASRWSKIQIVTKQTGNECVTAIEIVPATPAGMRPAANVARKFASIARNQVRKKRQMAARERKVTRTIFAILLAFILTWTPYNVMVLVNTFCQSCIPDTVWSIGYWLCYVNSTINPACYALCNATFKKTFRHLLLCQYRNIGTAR
Experiment: SPA GTP (GTPgS) binding curve shift assay, M4
Type: biochemical
Description: Membranes were prepared for GTPgS binding assays from CHO-K1 cells stably expressing human M2 or human M4 receptors. Cells were grown in 5-layer cell culture flasks. Cells were washed with 50 mL of PBS and then dissociated with 0.05% trypsin. Dissociated cells were then collected by centrifugation at 650×g for 8 min at 4° C. Pellets were rewashed in PBS by centrifugation and resuspended in 30 mL of 20 mM HEPES, 10 mM EDTA, pH 7.4. After sitting on ice for 30 min, membranes were collected by centrifugation at 50000×g for 15 min at 4° C., resuspended in 30 mL of 20 mM HEPES, 0.1 mM EDTA, pH 7.4, and collected again by centrifugation. Pellets were then washed twice by centrifugation in 30 mL of 20 mM HEPES, pH 7.4, and stored at −80° C. until the day of the assay. On the day of the assay, pellets were thawed on ice and resuspended in 1 mL of 20 mM HEPES, pH 7.4, 10 mM MgCl2, and 100 mM NaCl using Dounce homogenization.
According to Promega guidelines, membrane protein concentration was determined by BCA protein assay (Promega, Madison, WI).
On the day of the assay, serial dilutions of test PAM compounds were brought up in assay buffer (20 mM HEPES, 10 mM MgCl2; see Table 4 for NaCl concentrations) at four times the final assay concentration. […] of membrane homogenates (containing […] of membrane protein) were prepared in assay buffer supplemented with GDP at 4× final assay concentration (see Table 4 for GDP concentrations) and dispensed into 96 well polypropylene, U-bottom Greiner plates. Membrane plates were incubated for 10 min at room temperature with gentle shaking. Then, 25 μL of test compounds were added to assay plates. Plates were then incubated, with shaking, for an additional 10-15 min. Then, 25 μL of diluted agonists serially diluted in assay buffer at 4× final assay concentration was added to assay plates. Plates were then incubated, with shaking, for an additional 10-15 min. Next, […] of 0.4 nM ^35S-GTP (Perkin Elmer, Waltham, MA) in assay buffer was added to assay mixtures. The binding reaction was left on the shaker for 1 h at room temperature. Membranes in assay reactions were then transferred to GF/C filter plates (UniFilter, Perkin Elmer) and washed three times using FilterMate Harvester (Perkin Elmer) with cold assay buffer containing no GDP. Filter plates were then dried at 40° C. overnight, and […] of Beta Plate Scintillation liquid was added. Plates were top and bottom sealed before being read on the TopCount scintillation counter (Perkin Elmer, Waltham, MA).
Raw data for all assays was transmitted directly from plate readers into the Beacon database for processing. All assay plates contained positive and negative control wells for data normalization and scaling. […] All control wells contained DMSO at a final assay concentration that matched the test compound wells.
For GTPgS assays, the negative control wells were defined as 0% response. The highest response in a plate was scaled to 1, representing 100% response. Data from test compound wells was scaled to these controls and are reported as % control values. This was done to allow for subsequent GraphPad cooperativity analysis, setting the maximal response at no more than 1.

[1] = Emraclidine concentration 41.2 nM, read-out: Emax
[2] = Emraclidine concentration 123 nM, read-out: Emax
[3] = Emraclidine concentration 370 nM
[4] = Emraclidine concentration 1110 nM, read-out: Emax
[5] = Emraclidine concentration 3330 nM, read-out: Emax
[6] = MK-4710 concentration 41.2 nM, read-out: Emax
[7] = MK-4710 concentration 123 nM, read-out: Emax
[8] = MK-4710 concentration 1110 nM, read-out: Emax
[9] = MK-4710 concentration 3330 nM, read-out: Emax

EC50 (Emraclidine concentration 0 nM)	Emax (Emraclidine concentration 0 nM)	Emax [1]	Emax [2]	Emax at […] [3]	Emax [4]	Emax [5]	Emax at […] (Emraclidine concentration […])	α (cooperativity, affinity shift) (M4 PAM Emraclidine)	β (cooperativity, efficacy shift) (M4 PAM Emraclidine)	τ (agonist pharmacology) (M4 PAM Emraclidine)	α (cooperativity, affinity shift) (M4 PAM MK-4710)	β (cooperativity, efficacy shift) (M4 PAM MK-4710)	Emax (MK-4710 concentration 0 nM)	Emax [6]	Emax [7]	Emax at […] (MK-4710 concentration 370 nM)	Emax [8]	Emax [9]	Emax at […] (MK-4710 concentration […])	Structure (SMILES)	other results
12.7 nM	14.3%	24.5%	43.9%	60.1%	76.8%	84%	24.2%	2.4	56.3	1.5	1.0	1051018.0	14.0%	35.9%	41.8%	59.7%	80%	88.1%	26%	CCCCCCCOc1nsnc1C1=CCCCN1C [KTX-593, 3-(heptyloxy)-4-(1-methyl-1,4,5,6-tetrahydropyridin-2-yl)-1,2,5-thiadiazole]	τ (agonist pharmacology) (M4 PAM MK-4710): 381.2; EC50 (MK-4710 concentration 0 nM): 44.7 nM
1300 nM	4.0%	13.2%	28%	49.2%	73.3%	86.3%	10.6%	1.0	57.2	0.4	1.0	136.5	6.4%	20.2%	26.6%	42.1%	68.1%	83.6%	14.4%	CC1OC2(CS1)CN1CCC2CC1 (stereo not drawn) [cevimeline, Cevimeline, reference compound]	τ (agonist pharmacology) (M4 PAM MK-4710): 0.1; EC50 (MK-4710 concentration 0 nM): 3010 nM
1.6 nM	2.6%	17.8%	29.6%	46.5%	62.4%	66.8%	10.6%	3.0	32.3	0.6	1.0	1395.0	12.6%	27.3%	34.3%	53.4%	75.1%	87.1%	20.4%	CCCCCOc1nsnc1C1=CCCCN1C [KTX-517, 3-(1-methyl-1,4,5,6-tetrahydropyridin-2-yl)-4-(pentyloxy)-1,2,5-thiadiazole]	τ (agonist pharmacology) (M4 PAM MK-4710): 0.8; EC50 (MK-4710 concentration 0 nM): 548 nM; EC50 (MK-4710 concentration 41.2 nM): 2.3 nM; EC50 (MK-4710 concentration 123 nM): 1.4 nM; EC50 (MK-4710 concentration 370 nM): 2.1 nM; EC50 (MK-4710 concentration 1110 nM): 2.3 nM; EC50 (MK-4710 concentration 3330 nM): 1.5 nM; EC50 (MK-4710 concentration […]): 8.7 nM

Structure (SMILES)	EC50 (Emraclidine concentration 0 nM)	Emax (Emraclidine concentration 0 nM)	Emax [1]	Emax [2]	Emax at […] [3]	Emax [4]	Emax [5]	Emax at […] (Emraclidine concentration […])	α (cooperativity, affinity shift) (M4 PAM Emraclidine)	β (cooperativity, efficacy shift) (M4 PAM Emraclidine)	τ (agonist pharmacology) (M4 PAM Emraclidine)	α (cooperativity, affinity shift) (M4 PAM MK-4710)	β (cooperativity, efficacy shift) (M4 PAM MK-4710)	Emax (MK-4710 concentration 0 nM)	Emax [6]	Emax [7]	Emax at […] (MK-4710 concentration 370 nM)	Emax [8]	Emax [9]	Emax at […] (MK-4710 concentration […])	other results
CCCCCCOc1nsnc1C1=CCCN(C)C1 [xanomeline, reference compound]		27.2%	31.9%	38.1%	60%	78.7%	89.4%	28.7%			1.4			19.7%	29.7%	38.5%	55%	70.6%	80.5%	25.1%	
